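Assay format: 96-well plates, 48-hour exposure. Abbreviation: GI50, concentration required for 50% inhibition of growth.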 Calls of active or inactive are those of the source. No stated cut-off is given here; in the data, active = GI50 up to about 1.1 µM and inactive = higher.
Columns and labels:
Experiment in all cases: DTP human tumour cell line panel, 48 h
OVCAR-4 = system: OVCAR-4
HCT-15 = system: HCT-15
A498 = system: A498
K562 = system: K562
UACC-257 = system: UACC-257
SW-620 = system: SW-620
HCC 2998 = system: HCC 2998
SF-539 = system: SF-539
MOLT-4 = system: MOLT-4
COLO 205 = system: COLO 205
SK-MEL-28 = system: SK-MEL-28
NCI-H460 = system: NCI-H460
HCT-116 = system: HCT-116
CAKI-1 = system: CAKI-1
NCI-H522 = system: NCI-H522
SF-295 = system: SF-295
SK-OV-3 = system: SK-OV-3
OVCAR-3 = system: OVCAR-3

| SMILES | GI50 (OVCAR-4) | GI50 (HCT-15) [µM] | GI50 (A498) | GI50 (K562) | GI50 (UACC-257) | GI50 (SW-620) | GI50 (HCC 2998) | GI50 (SF-539) | GI50 (MOLT-4) | GI50 (COLO 205) | GI50 (SK-MEL-28) | GI50 (NCI-H460) | GI50 (HCT-116) | GI50 (CAKI-1) | GI50 (NCI-H522) | GI50 (SF-295) | GI50 (SK-OV-3) | GI50 (OVCAR-3) |
| --- | --- | --- | --- | --- | --- | --- | --- | --- | --- | --- | --- | --- | --- | --- | --- | --- | --- | --- |
| Oc1cc(-c2ccc[nH]2)nc2cc3c(cc12)OCO3 | 21 µM (inactive) | 23.2 | 18.6 µM (inactive) | 17.1 µM (inactive) | 64.7 µM (inactive) | 21.6 µM (inactive) | 28.8 µM (inactive) | 29.6 µM (inactive) | 39.7 µM (inactive) | 18.5 µM (inactive) | 65.2 µM (inactive) | 25.2 µM (inactive) |  |  |  |  |  |  |
| Cc1cc(N(CCC#N)S(=O)(=O)c2ccccc2)ccc1/C=C1N=C(/C=C/c2ccccc2)OC\1=O |  | > 100 | > 100 µM (inactive) | 94.6 µM (inactive) | > 100 µM (inactive) | > 100 µM (inactive) | > 100 µM (inactive) | > 100 µM (inactive) | 98.2 µM (inactive) | > 100 µM (inactive) | > 100 µM (inactive) | > 100 µM (inactive) | > 100 µM (inactive) | > 100 µM (inactive) | 67.9 µM (inactive) | > 100 µM (inactive) | > 100 µM (inactive) | > 100 µM (inactive) |
| COc1cc(-c2cccs2)sc1-c1cccs1 | 50.2 µM (inactive) | 4.4 |  | 13.6 µM (inactive) | 39.7 µM (inactive) | 71.1 µM (inactive) | 26.7 µM (inactive) | 73.8 µM (inactive) | 32.6 µM (inactive) | 13.2 µM (inactive) | 34 µM (inactive) | 26 µM (inactive) | 28.6 µM (inactive) |  | 31 µM (inactive) | 23.3 µM (inactive) | 31 µM (inactive) | 63.8 µM (inactive) |
| O=C(Nc1nnn[nH]1)c1nc(O)cc(-c2ccccc2)n1 | > 100 µM (inactive) |  | > 100 µM (inactive) | > 100 µM (inactive) | > 100 µM (inactive) | > 100 µM (inactive) | > 100 µM (inactive) |  | > 100 µM (inactive) | > 100 µM (inactive) | > 100 µM (inactive) | > 100 µM (inactive) | > 100 µM (inactive) | > 100 µM (inactive) | > 100 µM (inactive) | > 100 µM (inactive) | > 100 µM (inactive) | > 100 µM (inactive) |
| CCOC(=O)C1=C(C)N(NC(N)=O)C2(N)N(NC(N)=O)C(C)=C(C(=O)OCC)C12C(=O)OCC (stereo unspecified) | > 100 µM (inactive) | > 100 | > 100 µM (inactive) | > 100 µM (inactive) | > 100 µM (inactive) | > 100 µM (inactive) | > 100 µM (inactive) | > 100 µM (inactive) | > 100 µM (inactive) |  | > 100 µM (inactive) | > 100 µM (inactive) | > 100 µM (inactive) | > 100 µM (inactive) | > 100 µM (inactive) | > 100 µM (inactive) | > 100 µM (inactive) | > 100 µM (inactive) |
| O=[N+]([O-])c1nccn1COCCBr | > 100 µM (inactive) | > 100 |  | > 100 µM (inactive) | > 100 µM (inactive) | > 100 µM (inactive) |  | > 100 µM (inactive) | > 100 µM (inactive) | > 10 µM (inactive) | > 100 µM (inactive) | > 100 µM (inactive) | > 100 µM (inactive) | > 100 µM (inactive) | > 100 µM (inactive) | > 100 µM (inactive) | > 100 µM (inactive) | > 100 µM (inactive) |
| CCOC(=O)C1(Cc2ccccc2)CCCCCN1 (stereo unspecified) | > 100 µM (inactive) | > 100 |  | > 100 µM (inactive) |  | > 100 µM (inactive) | > 100 µM (inactive) |  |  | > 100 µM (inactive) | > 100 µM (inactive) | > 100 µM (inactive) |  | > 100 µM (inactive) |  | > 100 µM (inactive) | > 100 µM (inactive) | > 100 µM (inactive) |
| C=C1CC2CC(O)CC(C1)C2 (stereo unspecified) | > 100 µM (inactive) |  | > 100 µM (inactive) |  | > 100 µM (inactive) | > 100 µM (inactive) |  | > 100 µM (inactive) | 78.2 µM (inactive) | > 100 µM (inactive) | > 100 µM (inactive) | > 100 µM (inactive) | > 100 µM (inactive) | > 100 µM (inactive) | > 100 µM (inactive) | > 100 µM (inactive) | > 100 µM (inactive) | > 100 µM (inactive) |
| Cc1cccc2c1C(=O)OC2(C)c1cccc2ccccc12 (stereo unspecified) | 22.4 µM (inactive) | 29 |  | 16.4 µM (inactive) | 34.2 µM (inactive) | 30.3 µM (inactive) | 20.9 µM (inactive) |  | 26.2 µM (inactive) |  | 41.3 µM (inactive) | 29.7 µM (inactive) |  | 19.8 µM (inactive) | 16.8 µM (inactive) | 32.1 µM (inactive) |  | 26.9 µM (inactive) |
| CC(C)c1ccccc1NC(=O)/C(Cl)=C1/Sc2ccccc2NC1=O | 21.9 µM (inactive) | 22.8 | 32.6 µM (inactive) | 14.8 µM (inactive) |  | 25.2 µM (inactive) | 23.6 µM (inactive) | 21.9 µM (inactive) | 24.8 µM (inactive) | 21.4 µM (inactive) | 33.4 µM (inactive) | 34.5 µM (inactive) | 28.8 µM (inactive) | 17.5 µM (inactive) | 17.9 µM (inactive) |  | 18.4 µM (inactive) |  |
| COc1ccc(C=O)c([N+](=O)[O-])c1 | 76.6 µM (inactive) | 9.27 | > 100 µM (inactive) | 3.71 µM (inactive) | 37.7 µM (inactive) | 8.24 µM (inactive) | > 10 µM (inactive) | 20.4 µM (inactive) | 4.31 µM (inactive) | 53.3 µM (inactive) | > 100 µM (inactive) | 37.5 µM (inactive) | 4.09 µM (inactive) |  | > 100 µM (inactive) | 21 µM (inactive) | > 100 µM (inactive) | 27.9 µM (inactive) |
| CCOC(=O)C1S/C(=N/c2ccc(Cl)cc2C)N=C1C (stereo unspecified) | 19.9 µM (inactive) | 18.5 | 37.1 µM (inactive) | 17.7 µM (inactive) | 22.2 µM (inactive) | 22.3 µM (inactive) | 20.7 µM (inactive) | 17.6 µM (inactive) | 9.77 µM (inactive) | 17.1 µM (inactive) | 25.2 µM (inactive) | 22 µM (inactive) | 15.1 µM (inactive) | 20.7 µM (inactive) | 13.3 µM (inactive) | 23.8 µM (inactive) |  | 20.8 µM (inactive) |
| C[C@@H]1[C@H](c2ccccc2)O[B-]2(c3ccc(Br)cc3)OC(=O)C[N+]12C (stereo partly specified) | > 100 µM (inactive) | > 100 | > 100 µM (inactive) | 98.9 µM (inactive) | > 100 µM (inactive) | > 100 µM (inactive) | > 100 µM (inactive) | > 100 µM (inactive) | 86.5 µM (inactive) | > 100 µM (inactive) | 0.1 µM (active) | > 100 µM (inactive) | > 100 µM (inactive) | 53.3 µM (inactive) | > 100 µM (inactive) | > 100 µM (inactive) | > 100 µM (inactive) |  |
| CC1(CO)OC1COCc1ccccc1 (stereo unspecified) |  | > 100 |  | > 100 µM (inactive) | > 100 µM (inactive) | > 100 µM (inactive) |  | > 100 µM (inactive) | > 100 µM (inactive) | > 100 µM (inactive) |  | > 100 µM (inactive) |  |  |  | > 100 µM (inactive) | > 100 µM (inactive) | > 100 µM (inactive) |

From ChEMBL document CHEMBL1201862, “PubChem BioAssay data set” (2004)
